According to patent publication US20230013364A1, “COMBINATION THERAPIES COMPRISING ANTIBODY MOLECULES TO PD-1” (Novartis AG, priority 2015, published 2023):
“And” between values parts separate entries of the source, which are not always exact repeats. Equal entries are not always repeated. “Also recorded” adds a separate entry of the source. Where two headings read alike, the source gives them in different places.

Tests used:
[1] = system: PD-L1 (CD274) mRNA in LOXIMV1 tumors; test: PD-L1 mRNA in LOXIMV1 tumor xenograft model; type: in vivo, human; conditions: tumor xenograft model bearing LOXIMV1 (BRAF mutant melanoma); FIG. 18
Experimental: (§1) TaqMan RT PCR assays were developed to detect changes of expression levels of PD-L1 (CD274) in cell lines and xenograft tumors. mRNA was isolated from frozen cell pellets or tumor fragments using the Qiagen RNeasy Mini kit. Isolated RNA was frozen at −80° C. RNA quality was checked and RNA was quantified using a 2100 Agilent Bioanalyzer following the protocol for the Agilent RNA 6000 Nano Kit. cDNA was prepared using a High Capacity RNA—to cDNA Kit (Applied Biosystems).
(§2) Real-time PCR reactions were carried out in 20 μl total volume, including 10 μl of Universal PCR master mix (Applied Biosystems), 1 μl of human PD-L1 (CD274) probe/primer set (Applied Biosystems), and 8 μl of cDNA. Each sample was run in triplicate. The amount of cDNA produced from 25-50 ng of RNA in the reverse transcription reaction was used in each PCR reaction. Due to difference in mRNA levels between PD-L1 and GAPDH, the two real-time PCR reactions were done in separate tubes using same amount of cDNA. The real-time PCR reaction was run on the C1000 Thermal Cycle (BioRad) with the cycle program as follows: a 10 minute incubation at 95° C. followed by 40 cycles of 95° C. for 15 seconds and 60° C. for 1 minute. After the reaction was complete, the PD-L1 average Ct was normalized relative to each Ct value from the GAPDH reference reaction. Each normalized logarithmic value was then converted into a linear value.

[2] = system: PD-L1 (CD274) surface expression in EBC-1 cells; test: Flow cytometry of PD-L1 surface expression in EBC-1 cells in vitro; type: cell-based, human; conditions: EBC-1 cells (NSCLC with cMET amplification); 10, 100, 1000 nM; 24, 48, 72 hours; vs DMSO; FIG. 15
Experimental: PD-L1 (CD274) expression was analyzed in cancer cell lines treated with Compound A17. Cells were obtained from ATCC and cultured in vitro following ATCC directions. The cell lines used were previously characterized by the Cancer Cell Line Encyclopedia Project (http://www.broadinstitute.org/ccle/home).
Cells plated in six-well culture plates were treated with the Compound A17 at different concentrations (10 nM, 100 nM, and 1000 nM) for 24, 48 and 72 hours. Equal amount of vehicle (DMSO) was used as a control. Cells were washed with PBS and then harvested using a cell scraper.
For each reaction, 0.5-1×10^6 cells were stained with 20 μL of anti-human monoclonal PD-L1— PE antibody, clone M1H1 (BD) for 30-60 minutes at 4° C. Cells were washed twice and data was acquired using a Canto II with FACSDiva software (BD Bioscience). Data analysis was performed using FlowJo software (Tree Star). Mean fluorescence intensity (MFI) was determined by gating on single cells. Unstained cells were used as a gating control.

[3] = system: PD-L1 (CD274) mRNA in Hs.746.T tumor; test: PD-L1 mRNA in Hs.746.T tumor xenograft; type: in vivo, human; conditions: Hs.746.T tumor (gastric cancer, cMET amplification & mutation) xenograft; FIG. 16
Experimental: as §1, §2

[4] = system: PD-L1 (CD274) mRNA in UKE-1 tumors; test: PD-L1 mRNA in UKE-1 tumor xenograft model; type: in vivo, human; conditions: tumor xenograft model bearing UKE-1 (MPN line with JAK2V617F mutation); FIG. 20
Experimental: as §1, §2

[5] = system: PD-L1 (CD274) mRNA in H3122 cells; test: TaqMan RT PCR of PD-L1 mRNA in H3122 cells in vitro; type: cell-based, human; conditions: H3122 (NSCLC with ALK translocation) in vitro; FIG. 17
Experimental: as §1, §2

[6] = system: PD-L1 (CD274) mRNA in HEYA8 tumors; test: PD-L1 mRNA in HEYA8 tumor xenograft model; type: in vivo, human; conditions: tumor xenograft model bearing HEYA8 (KRAF mutant ovarian cancer); FIG. 19
Experimental: as §1, §2

[7] = system: interferon gamma (IFN-γ) expression; type: cell-based
CD8+ T cells = test: Proliferation of CD8+ T cells activated with CMV peptides; type: cell-based; conditions: percentages of CD8+ cells that passed through at least n cell divisions (n=2, 4, 6)

COC(=O)N[C@@H](C)CNc1nccc(-c2cn(C(C)C)nc2-c2cc(Cl)cc(NS(C)(=O)=O)c2F)n1 [Compound A29, Encorafenib]
PD-L1 mRNA [1]: Significant inhibition; also recorded: Downregulation

CNC(=O)c1ccc(-c2cnc3ncc(Cc4ccc5ncccc5c4)n3n2)cc1F [Compound A17, 2-fluoro-N-methyl-4-(7-(quinolin-6-ylmethyl)imidazo[1,2-b][1,2,4]triazin-2-yl)benzamide]
surface expression of PD-L1 (flow cytometry) [2]: Significant inhibition; also recorded: significant downregulation
PD-L1 expression (mRNA) [3]: Inhibition

N#CC[C@H](C1CCCC1)n1cc(-c2ncnc3[nH]ccc23)cn1 [Compound A18, Ruxolitinib Phosphate]
PD-L1 mRNA [4]: Significant inhibition; also recorded: Downregulation

Cc1cc(Nc2ncc(Cl)c(Nc3ccccc3S(=O)(=O)C(C)C)n2)c(OC(C)C)cc1C1CCNCC1 [Compound A23, ceritinib]
PD-L1 mRNA [5]: Significant inhibition

Cn1cnc2c(F)c(Nc3ccc(Br)cc3F)c(C(=O)NOCCO)cc21 [Compound A34, Binimetinib]
PD-L1 mRNA [6]: Significant inhibition; also recorded: Downregulation

B1: BAP049: murine anti-PD-1 monoclonal antibody (antibody, V domains shown)
VH: QVQLQQSGSELVRPGASVKLSCKASGYTFTTYWMHWVRQRPGQGLEWIGNIYPGTGGSNFDEKFKNRTSLTVDTSSTTAYMHLASLTSEDSAVYYCTRWTTGTGAYWGQGTLVTVSA
VL: DIVMTQSPSSLTVTAGEKVTMSCKSSQSLLDSGNQKNFLTWYQQKPGQPPKLLIFWASTRESGVPDRFTGSGSVTDFTLTISSVQAEDLAVYYCQNDYSYPCTFGGGTKLEIK
fold increase in IFN-γ expression [7]: 2.3±1.1 fold and 2.8±0.8 fold
fold increase in IFN-γ expression ([7]; cells stimulated with Staphylococcal enterotoxin B (SEB) (3 pg/mL)): 2.5±2.0 fold
proliferation of CD8+ T cells activated with CMV peptides (CD8+ T cells): increase proliferation
